# Measured values from patent US20240309028A1, “PHOSPHOLIPID COMPOUNDS AND METHODS OF MAKING AND USING THE SAME” (Gilead Sciences, Inc., priority 2023, published 2024).
# Tests used:
# Type in all cases: cell-based
# [1] = test system: Human Rhinovirus 14 (HRV14); experiment: H1-HeLa HRV-CTG EC50, HRV14; settings: Rhinovirus B, 96 h; H1-HeLa cells, HRV14, MOI 1.0, 4 days, Celltiter-Glo; read-out: EC50 H1-HeLa_HRV14_HRV-CTG 384-well Assay (per Ex Z)
# Description: (§1) Example Z: H1-HeLa HRV-CTG EC50
# (§2) H1-Hela cell line (ATCC, Manassas, VA, Cat #CRL-1958) was maintained in Dulbecco's […] Essential Medium (DMEM) (Corning, New York, NY, Cat #15-018 CM) supplemented with 10% fetal bovine serum (FBS) (Hyclone, Logan, UT, Cat #SH30071-03), and 1× Penicillin-Streptomycin-L-Glutamine (Corning, New York, NY, Cat #30-009-CI). Cells were passaged 2 times per week to maintain sub-confluent densities and were used for experiments at passage 5-30. The Human Rhinovirus 1B (HRVIB) (ATCC, Manassas, VA, Cat #VR-1645), Human Rhinovirus 14 (HRV14) (ATCC, Manassas, VA, Cat #VR-284), and Human Rhinovirus 16 (HRV16) (ATCC, Manassas, VA, Cat #BR-283) was obtained through ATCC. Viral infection was monitored by determining viability of H1-HeLa cells as described below.
# (§3) Test molecules are prepared in 100% DMSO in 384-well polypropylene plates (Greiner, Monroe, NC, Cat #784201) with 8 compounds per plate in grouped replicates of 4 at 10 serially diluted concentrations (1:3). […]
# (§4) The test compounds were spotted to 384-well assay plates (Greiner, Monroe, NC, Cat #781091) at 200 nL per well using an Echo acoustic dispenser (Labcyte, Sunnyvale, CA). […] 40 μL per well of Celltiter-Glo reagent was added and the plates were incubated at room temperature for 15 minutes before reading the luminescence signal on an En Vision multimode plate reader (Perkin Elmer, Waltham, MA). […]
# [2] = test system: Human Rhinovirus 16 (HRV16); experiment: H1-HeLa HRV-CTG EC50, HRV16; settings: Rhinovirus A, 96 h; H1-HeLa cells, HRV16, MOI 0.25, 4 days, Celltiter-Glo; read-out: EC50 H1-HeLa_HRV16_HRV-CTG 384-well Assay (per Ex. Z)
# Description: as §1, §2, §3, §4
# [3] = test system: Human Rhinovirus 1B (HRVIB); experiment: H1-HeLa HRV-CTG EC50, HRV1B; settings: Rhinovirus A, 96 h, H1-HeLa cells, MOI 0.5, 4 days, Celltiter-Glo, read-out: EC50 H1-HeLa_HRV1B_HRV-CTG 384-well Assay (per Ex. Z)
# Description: as §1, §2, §3, §4
# RSV strain A2 = experiment: RSV Cellomics assay for RSV A2 antiviral activity (EC50-RSV-Hep2-96-Cellomics); settings: human respiratory syncytial virus, HEp-2, 72 h; Hep2 cells, RSV strain A2, MOI=0.05, 3 days, RSV F protein immunofluorescence; read-out: EC50-RSV-HEp2-96-Cellomics Example B1
# Method: Example B1: RSV Cellomics Assay for RSV A2 Antiviral Activity (EC50-RSV-Hep2-96-Cellomics)
# 8×10^3 Hep2 cells are seeded into 96 well plates in 100 μL of media (DMEM supplemented with GlutaMAX, 10% FBS and Pen/Strep) and briefly spun at 50×g for 1 minute to attach cells. Cells were further allowed to attach with overnight incubation at 37° C.+5% CO2. The following day, the media was aspirated and 100 μL of fresh DMEM media containing 2% FBS was added. A three-fold dilution series of compounds of interest are then added to the plate using the Tecan D300e dispenser and the plate is normalized to the well with the highest volume of DMSO. The cells are next infected by adding 100 μL of media containing RSV strain A2 at an MOI=0.05 and the plates incubated for 3 days at 37° C.+5% CO2. Following the incubation, the media is removed, and the cells are washed once with 250 μL PBS and fixed with 250 μL ice-cold 100% methanol for 10 minutes at 4 C. The methanol is then removed and the plates air dried for 5 minutes and then washed once with 250 μL PBS to remove any residual methanol. The wells are then blocked 60 μL/well of BlockAid (B10710, Thermo-Fisher) for 1 hour at RT on rocker at which point the blocking buffer is carefully aspirated. Primary antibody against the RSV F protein (MAB 858-1) is then diluted 1:2000 in SuperBlock (37515, Thermo Fisher) and 50 μL of the primary antibody solution is added to each well. The plates are incubated at room temperature for 1 hour with gentle agitation and then washed with 250 μL of PBS-Tween 3 times. A goat anti-mouse AlexaFluor 647 conjugated secondary antibody (Sigma, A21235) is then diluted 1:2000 and Hoescht 33342 (H3570) at 1:1000 in SuperBlock and 50 μL added to the wells for 1 hour at 37° C. After incubation the antibody solution is aspirated, and the wells are then washed with 250 μL of PBS-Tween 3 times. To keep cells from drying out, 100 μL of PBS is added to each well and the plates are sealed with black plate seal. Fluorescence at the 647 nm wavelength is measured using a Cellomics CellInsight CX7 machine. Compound activity is determined as a percentage of the % positive cells (or average intensity) compared to DMSO treated RSV infected well controls following subtraction of uninfected controls. The EC50 values are then calculated using nonlinear regression analysis in GraphPad Prism.
SMILES,EC50 [1] [nM],EC50 [2] [nM],EC50 [3] [nM],EC50 (RSV strain A2) [nM]
"N#Cc1cc(F)cc(CO[C@H](CCCCCCCCCCCCCCCCCCC(F)(F)F)COP(=O)(O)OC[C@@]2(C#N)O[C@@H](c3ccc4c(N)ncnn34)[C@H](O)[C@@H]2O)c1 [Compound 2, ((2R,3S,4R,5S)-5-(4-aminopyrrolo[2,1-f][1,2,4]triazin-7-yl)-2-cyano-3,4-dihydroxytetrahydrofuran-2-yl)methyl ((R)-2-((3-cyano-5-fluorobenzyl)oxy)-21,21,21-trifluorohenicosyl) hydrogen phosphate]",87,91,62,241
"N#Cc1cc(F)cc(CO[C@H](COCCCCCCCCCCCCCCCCCC(F)(F)F)COP(=O)(O)OC[C@@]2(C#N)O[C@@H](c3ccc4c(N)ncnn34)[C@H](O)[C@@H]2O)c1 [Compound 1, ((2R,3S,4R,5S)-5-(4-aminopyrrolo[2,1-f][1,2,4]triazin-7-yl)-2-cyano-3,4-dihydroxytetrahydrofuran-2-yl)methyl ((R)-2-((3-cyano-5-fluorobenzyl)oxy)-3-((18,18,18-trifluorooctadecyl)oxy)propyl) hydrogen phosphate]",34,34,12,76
